# Measurements reported in patent US7417027B2, “Linear and cyclic melanocortin receptor-specific peptides” (Palatin Technologies, Inc., priority 2001, dated 2008).
# Non-standard residues stand in square brackets, D forms with d. Residues, ends and D or L forms follow the SMILES beside them. *: point of attachment. dPhe(4-Cl) = N[C@H](Cc1ccc(Cl)cc1)C(=O)O; d2Nal = N[C@H](Cc1ccc2ccccc2c1)C(=O)O; Nle = CCCC[C@H](N)C(=O)O; Ahp = NCCCCCCC(=O)O; Bn = c1ccc(C*)cc1
# Assays:
# MC1-R = MC1-R (Mus musculus, UniProt Q01727); test: Competitive inhibition binding assay, 125I-NDP-alpha-MSH, B-16 mouse melanoma cell membranes; settings: for percent inhibition of 125I-NDP-alpha-MSH binding, MC1-R (B-16): B-16 mouse melanoma cell membranes, 0.4 nM 125I-NDP-alpha-MSH, mean of triplicate, peptide concentration not given; for Ki: B-16 cells, read-out: Ki MC-1 B-16; for MC1-R (B-16) inhibition of 125I-NDP-alpha-MSH binding: peptide conc. 1 μM
# Chain of MC1-R (Q01727 whole entry): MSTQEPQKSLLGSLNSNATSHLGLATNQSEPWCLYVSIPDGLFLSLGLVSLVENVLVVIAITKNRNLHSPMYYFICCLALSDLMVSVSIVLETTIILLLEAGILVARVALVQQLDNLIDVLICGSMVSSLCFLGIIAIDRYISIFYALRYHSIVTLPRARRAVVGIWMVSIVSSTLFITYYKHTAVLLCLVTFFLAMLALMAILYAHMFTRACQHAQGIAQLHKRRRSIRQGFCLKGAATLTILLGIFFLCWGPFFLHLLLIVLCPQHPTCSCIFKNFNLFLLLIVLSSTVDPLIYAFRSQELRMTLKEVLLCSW
# hMC5-R = target: T1, hMC5-R (Homo sapiens, UniProt P33032); test: Competitive inhibition binding assay, 125I-NDP-alpha-MSH, hMC5-R membranes; settings: for percent inhibition of 125I-NDP-alpha-MSH binding, MC5-R: hMC5-R membranes, 0.4 nM 125I-NDP-alpha-MSH, mean of triplicate, peptide concentration not given; for Ki: membranes, read-out: Ki MC-5 Mem
# T1 construct: expressed in transfected cells
# T1 sequence (P33032 whole entry): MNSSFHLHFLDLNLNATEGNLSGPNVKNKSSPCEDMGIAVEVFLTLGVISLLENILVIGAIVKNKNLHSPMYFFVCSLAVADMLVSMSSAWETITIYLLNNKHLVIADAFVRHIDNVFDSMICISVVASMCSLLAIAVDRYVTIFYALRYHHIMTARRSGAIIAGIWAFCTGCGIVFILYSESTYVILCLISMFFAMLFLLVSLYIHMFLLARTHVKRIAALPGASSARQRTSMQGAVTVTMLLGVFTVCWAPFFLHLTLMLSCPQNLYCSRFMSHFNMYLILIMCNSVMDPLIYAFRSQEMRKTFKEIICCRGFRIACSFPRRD
# MC4-R [1] = target: T2, MC4-R (Homo sapiens, UniProt P32245); test: Competitive inhibition binding assay, 125I-NDP-alpha-MSH, hMC4-R membranes; set-up: expressed in transfected cells; settings: for percent inhibition of 125I-NDP-alpha-MSH binding, MC4-R: hMC4-R membranes, 0.4 nM 125I-NDP-alpha-MSH, mean of triplicate, peptide concentration not given; for Ki: membranes, read-out: Ki MC-4 Mem
# T2 sequence (P32245 whole entry): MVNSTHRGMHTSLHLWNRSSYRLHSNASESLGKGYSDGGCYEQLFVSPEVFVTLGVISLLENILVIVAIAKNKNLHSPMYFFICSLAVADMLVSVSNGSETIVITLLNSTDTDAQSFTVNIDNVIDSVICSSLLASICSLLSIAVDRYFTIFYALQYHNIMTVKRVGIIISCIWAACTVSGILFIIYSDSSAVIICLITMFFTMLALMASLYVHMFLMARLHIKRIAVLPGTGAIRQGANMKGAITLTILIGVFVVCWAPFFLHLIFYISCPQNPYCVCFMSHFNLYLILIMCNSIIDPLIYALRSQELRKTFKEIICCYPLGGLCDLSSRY
# hMC3-R = target: T3, hMC3-R (Homo sapiens, UniProt P41968); test: Competitive inhibition binding assay, 125I-NDP-alpha-MSH, hMC3-R membranes; settings: for percent inhibition of 125I-NDP-alpha-MSH binding, MC3-R: hMC3-R membranes, 0.4 nM 125I-NDP-alpha-MSH, mean of triplicate, peptide concentration not given; for Ki: membranes, read-out: Ki MC-3 Mem
# T3 construct: expressed in transfected cells
# T3 sequence (P41968 whole entry): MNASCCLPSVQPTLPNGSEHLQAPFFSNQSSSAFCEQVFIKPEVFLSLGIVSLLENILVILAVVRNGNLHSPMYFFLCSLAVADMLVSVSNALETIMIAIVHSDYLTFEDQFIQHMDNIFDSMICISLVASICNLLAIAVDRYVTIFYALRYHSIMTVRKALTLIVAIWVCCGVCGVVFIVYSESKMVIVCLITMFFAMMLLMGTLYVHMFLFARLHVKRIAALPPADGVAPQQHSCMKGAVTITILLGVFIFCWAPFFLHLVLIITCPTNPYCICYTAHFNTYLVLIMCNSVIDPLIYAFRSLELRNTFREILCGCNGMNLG
# MC4-R [2] = target: T2, MC4-R; test: Functional evaluation: intracellular cAMP accumulation in HEK-293 cells expressing MC4-R (agonist/antagonist status); format: cell-based; set-up: expressed in transfected cells; host or cells: HEK-293; settings: with or without alpha-MSH, 1 hour at 37° C
# Description: The Ki (nM) of certain peptides were determined, as was the agonist/antagonist status with respect to MC4-R. Functional evaluation of peptides at MC4-R was performed by measuring the accumulation of intracellular cAMP in HEK-293 cells expressing MC4-R. Antagonistic activity was determined by measuring the inhibition of α-MSH-induced cAMP levels following exposure to the compounds. Cells, suspended in Earle's Balanced Salt Solution containing 10 mM HEPES, pH 7.5, 5 mM MgCl2, 1 mM glutamine, 0.1% albumin and 0.6 mM 3-isobutyl-1-methyl-xanthine, a phosphodiesterase inhibitor, were plated in 96 well plates at a density of 0.5×10^5 cells per well. Cells were incubated with the test peptides in the presence or absence of α-MSH for 1 hour at 37° C. cAMP levels were measured by EIA (Amersham) in the cell lysates. Data analysis and EC50 values were determined using nonlinear regression analysis with Prism Graph-Pad software.
Compound,"percent inhibition of 125I-NDP-alpha-MSH binding, MC1-R (B-16) (MC1-R)","percent inhibition of 125I-NDP-alpha-MSH binding, MC5-R (hMC5-R)","percent inhibition of 125I-NDP-alpha-MSH binding, MC4-R (MC4-R [1])","percent inhibition of 125I-NDP-alpha-MSH binding, MC3-R (hMC3-R)",further results
2′-naphthylacetyl-Ala-D-Phe(4-Cl)-Arg-Trp-NH2,45%,–,–,–,–
2′-naphthylacetyl-D-Phe(4-Cl)-Arg-Trp-NH2,–,58%,–,–,–
2′-naphthylacetyl-Inp-D-Phe(4-Cl)-Arg-Trp-NH2,–,–,58%,–,–
2′-naphthylacetyl-Tle-D-Phe(4-Cl)-Arg-Trp-NH2,67%,–,–,–,–
2′-naphthylacetyl-beta-Ala-D-Nal 2-Arg-Trp-NH2,–,–,–,58%,–
"3′,4′-Cl2phenylacetyl-Ala-D-Phe(4-Cl)-Arg-2′-(4″-methylphenyl)ethylamide",–,-6%,–,–,–
"3′,4′-Cl2phenylacetyl-Ala-D-Phe(4-Cl)-Lys-Trp-NH2",45%,–,–,–,–
3′-CF3phenyl-acetyl-Ala-D-Phe(4-Cl)-Arg-Trp-NH2,–,–,–,101%,–
3′-CF3phenylacetyl-Ala-D-Phe(4-Cl)-Lys-Trp-NH2,–,67%,–,–,–
4′-biphenyl-acetyl-Ala-D-Phe(4-Cl)-Arg-Trp-NH2,0%,37%,88%,54%,–
4′-phenylbutylaminocarbonyl-D-Phe(4-Cl)-Arg-Trp-NH2,–,–,45%,–,–
7′-amino-heptanoyl-Ala-D-Phe(4-Cl)-Arg-Trp-NH2,58%,–,–,–,–
"7′-amino-heptanoyl-Ser(Bzl)-D-Phe(4-Cl)-Arg-2′,4′-dichlorobenzylamide",–,-6%,–,–,–
7′-amino-heptanoyl-Ser(Bzl)-D-Phe(4-Cl)-Arg-2′-(4″-methylphenyl)ethylamide,–,–,–,67%,–
7′-amino-heptanoyl-Ser(Bzl)-D-Phe(4-Cl)-Arg-4-phenyl-piperidine-4-carbonamide,5%,25%,13%,2%,–
7′-amino-heptanoyl-Ser(Bzl)-D-Phe(4-Cl)-Arg-Histamide,–,-2%,–,–,–
7′-amino-heptanoyl-Ser(Bzl)-D-Phe(4-Cl)-Arg-Tic-NH2,45%,–,–,–,–
7′-amino-heptanoyl-Ser(Bzl)-D-Phe(4-Cl)-Arg-Trp-Asp-OH,–,–,67%,–,–
7′-amino-heptanoyl-Ser(Bzl)-D-Phe(4-Cl)-Arg-Trp-OH,–,–,67%,–,–
7′-amino-heptanoyl-Ser(Bzl)-D-Phe(4-Cl)-alpha-(N-amidino-4′-piperidine)Gly-Trp-NH2,3%,16%,26%,8%,–
N=C(N)NCCC[C@H](NC(=O)[C@@H](Cc1ccc2ccccc2c1)NC(=O)[C@H](COCc1ccccc1)NC(=O)CCCCCCN)C(=O)N[C@H](Cc1c[nH]c2ccccc12)C(N)=O [7′-amino-heptanoyl-Ser(Bzl)-D-Nal 2-Arg-D-Trp-NH2] (H-[Ahp]S(Bn)[d2Nal]R[dW]-NH2),-8%,82%,100%,86%,Ki (MC1-R): 1300 nM; Ki (hMC3-R): 70 nM; HEK-293 (MC4-R) cells Classification (MC4-R [2]): Antagonist; Ki (MC4-R [1]): 6 nM; Ki (hMC5-R): 90 nM
N=C(N)NCCC[C@H](NC(=O)[C@@H](Cc1ccc2ccccc2c1)NC(=O)[C@H](COCc1ccccc1)NC(=O)CCCCCCN)C(=O)N[C@@H](Cc1c[nH]c2ccccc12)C(N)=O [7′-amino-heptanoyl-Ser(Bzl)-D-Nal 2-Arg-Trp-NH2] (H-[Ahp]S(Bn)[d2Nal]RW-NH2),4%,82%,99%,93%,Ki (MC1-R): 1870 nM; Ki (hMC3-R): 50 nM; HEK-293 (MC4-R) cells Classification (MC4-R [2]): Antagonist; Ki (MC4-R [1]): 4 nM; Ki (hMC5-R): 102 nM
C[C@H](NC(=O)[C@H](Cc1c[nH]c2ccccc12)NC(=O)[C@H](CCCNC(=N)N)NC(=O)[C@@H](Cc1ccc(Cl)cc1)NC(=O)[C@H](COCc1ccccc1)NC(=O)CCCCCCN)C(N)=O [7′-amino-heptanoyl-Ser(Bzl)-D-Phe(4-Cl)-Arg-Trp-Ala-NH2] (H-[Ahp]S(Bn)[dPhe(4-Cl)]RWA-NH2),–,79%,100%,93%,Ki (MC1-R): 142 nM; Ki (hMC3-R): 37 nM; HEK-293 (MC4-R) cells Classification (MC4-R [2]): Agonist; Ki (MC4-R [1]): 2 nM; Ki (hMC5-R): 112 nM
N=C(N)NCCC[C@H](NC(=O)[C@@H](Cc1ccc(Cl)cc1)NC(=O)[C@H](COCc1ccccc1)NC(=O)CCCCCCN)C(=O)N[C@@H](Cc1c[nH]c2ccccc12)C(=O)N[C@@H](CC(=O)O)C(N)=O [7′-amino-heptanoyl-Ser(Bzl)-D-Phe(4-Cl)-Arg-Trp-Asp-NH2] (H-[Ahp]S(Bn)[dPhe(4-Cl)]RWD-NH2),–,48%,98%,73%,Ki (MC1-R): 760 nM; Ki (hMC3-R): 191 nM; HEK-293 (MC4-R) cells Classification (MC4-R [2]): Agonist; Ki (MC4-R [1]): 9 nM; Ki (hMC5-R): 596 nM
N=C(N)NCCC[C@H](NC(=O)[C@@H](Cc1ccc(Cl)cc1)NC(=O)[C@H](COCc1ccccc1)NC(=O)CCCCCCN)C(=O)N[C@@H](Cc1c[nH]c2ccccc12)C(=O)N[C@@H](CC(=O)O)C(=O)N[C@@H](Cc1ccccc1)C(N)=O [7′-amino-heptanoyl-Ser(Bzl)-D-Phe(4-Cl)-Arg-Trp-Asp-Phe-NH2] (H-[Ahp]S(Bn)[dPhe(4-Cl)]RWDF-NH2),34%,54%,100%,37%,Ki (MC1-R): 269 nM; Ki (hMC3-R): 318 nM; HEK-293 (MC4-R) cells Classification (MC4-R [2]): Agonist; Ki (MC4-R [1]): 12 nM; Ki (hMC5-R): 386 nM
Ac-[Nle]AH[dF]RCW-NH2,–,–,–,–,MC1-R (B-16) inhibition of 125I-NDP-alpha-MSH binding (MC1-R): 101%
Ac-[Nle]AH[dF]RW-NH2,–,–,–,–,MC1-R (B-16) inhibition of 125I-NDP-alpha-MSH binding (MC1-R): 101%
Ac-[Nle]AH[dF]RWC-NH2,–,–,–,–,MC3-R inhibition of 125I-NDP-alpha-MSH binding (hMC3-R; peptide conc. 1 μM): 58%
Ph-(CH2)2NH-CO(CH2)2CO-D-Phe(4-Cl)-Arg-Trp-NH2,67%,–,–,–,–
